Columns and labels:
[1] = test system: human naïve Vα24+ iNKT cells; experiment: Expansion of human iNKT cells; type: cell-based; settings: 100 ng/ml; counted on day 9
Description: Human naïve Vα24^+ iNKT cells were cultured with autologous immature CD14^+ DCs pulsed with the indicated glycolipid at 100 ng/ml or DMSO on day 2 for 18 h. On day 3, the suspension cells were transferred to a new dish, cultured in the presence of 50 U/ml IL-2 (R & D Systems), and replenished with fresh medium every 3 days. The percentage of Vα24^+/Vβ11^+ cells was determined by flow cytometry on day 9. The total cell number after expansion was calculated with the Guava ViaCount reagent (Millipore, USA) and detected by the Guava system with CytoSoft™ software containing the ViaCount module (Millipore, USA).
As described above, glycolipid analogs with αGal were stronger immune modulators than those with αGlc in mice, especially for the comparison between 7DW8-5 and 7DW8-5-Glc. To investigate if similar trends also applied to human iNKT cells, Vα24^+ iNKT cells isolated from the peripheral blood were incubated with immature DCs pulsed with the indicated glycolipid at 100 ng/ml on day 2. After antigen removal on day 3, human iNKT cells were cultured in the presence of IL-2. The number of expanded iNKT cells was counted using the Guava ViaCount reagent on day 9.

[2] = test system: B6 WT mice splenocytes; experiment: FACS analyses of WT mouse immune cells after glycolipid stimulation; type: in vivo; settings: 1 μg/mouse; 3 days
Description: B6 WT mice treated with the indicated glycolipid (1 μg/mouse) or vehicle (1% DMSO in PBS) were sacrificed at 72 hr post-injection and their splenocytes were subjected to FACS analysis. (8A) The total splenocytes, (8B) total CD11Chi cells, (8C) CD11Chi/CD80+ cells, (8D) CD11Chi/CD86+ cells, (8E) CD4^+ T cells and (8F) CD8^+ T cells.
B6 WT or Jα18 KO mice treated with specific glycolipid (1 μg/mouse) or vehicle (1% DMSO in PBS) were sacrificed at 72 hr post-injection and their spleens were harvested. After pressing spleens through 70 um strainer and lysis of erythrocytes, the nucleated cells were resuspended in PBS buffer containing azide (0.05%) and stained with antibodies recognizing the indicated cell surface antigens for 30 min at 4° C. After washing, the splenocytes were subjected to FACS analysis. The antibodies against CD3, CD4, CD8α, CD11c, CD80, and CD86 were obtained from BD Bioscience-Pharmingen.
Next, we analyzed the expansion/activation of immune cells in WT mice 3 days after glycolipid stimulation. The numbers of total T cells, CD4^+ T and CD8^+ T cells were higher in mice treated by GSLs with αGal head than those treated by GSLs with αGlc (FIGS. 2C, 8E and 8F). This was in line with the observation that more cytokines/chemokines were induced by GSLs with αGal than GSLs with αGlc in mice (FIGS. 2A, 2B and 7). […] As compared to 7DW8-5-Glc, C1-Glc not only expanded ˜1.3 fold more splenocytes and DCs (FIGS. 8A and 8B) but also activated ˜3.5 fold more CD80^+ DCs as well as ˜3 fold more CD86^+ DCs (FIGS. 8C and 8D). The increased expansion/activation of DCs may contribute to the stronger immunogenicity triggered by C1-Glc and C34-Glc as compared to 7DW8-5-Glc in vivo.

[3] = test system: Murine DN3A4-1.2 Vα14 iNKT hybridoma cells; experiment: mCD1d vs. hCD1d swapping assay, murine iNKT cells; type: cell-based, mouse; settings: presented by mCD1d or hCD1d; 1, 0.1, 0.01 μg/ml
Description: (§1) (4A) Murine DN3A4-1.2 Vα14+ iNKT hybridoma cells or (4B) C1-expanded Vα24^+ iNKT cells were pulsed with the indicated glycolipid presented by either mCD1d (A20-CD1d cells) or hCD1d (HeLa-CD1d cells) at 1, 0.1, and 0.01 μg/ml. After 18 hr, the supernatants were harvested to measure IL-2 secretion by an ELISA assay (4A) or using Beadlyte® Human Cytokine kit and Luminex® 200™ reading system (4B). Assays were performed in triplicates. 8-5 was the abbreviation of 7DW8-5.
(§2) Murine DN3A4-1.2 Vα14 iNKT hybridoma cells or C1-expanded Vα24^+ iNKT cells were pulsed with the indicated glycolipid antigen presented either by mCD1d (A20-CD1d cells) or hCD1d (HeLa-CD1d cells) at 1, 0.1, and 0.01 μg/ml. After 18 hr, the supernatants were harvested for the measurement of cytokine secretion(s). IL-2 released from Vα14^+ iNKT cells was determined by ELISA assay. IFN-γ, IL-4 and IL-2 secreted from Vα24^+ iNKT cells were detected using Beadlyte® Human Cytokine kit (Millipore, N.Y., USA) and Luminex® 200™ reading system.
To explain the species-specific responses, we examined the effects of swapping human vs. mouse CD1d molecules against human vs. murine iNKT cells on the stimulatory activities of GSLs with different glycosyl groups. […]

[4] = test system: C1-expanded Vα24+ iNKT cells; experiment: mCD1d vs. hCD1d swapping assay, human iNKT cells; type: cell-based; settings: presented by mCD1d or hCD1d; 1, 0.1, 0.01 μg/ml
Description: as §1
C1-expanded Vα24^+ iNKT cells were pulsed with the indicated glycolipid antigen presented by either mCD1d (A20-CD1d cells) or hCD1d (HeLa-CD1d cells) at 1, 0.1, and 0.01 μg/ml. After 18 hr, the supernatants were harvested for the measurement of IFN-γ (12A) and IL-4 (12B) secretions. (12C) The ratio of IFN-γ over IL-4 was calculated at different concentrations of glycolipids. […]
as §2, with “After 18 hr, the supernatants were harvested for the measurement of cytokine secretion(s).” left out, “system. […]” for “system.”

Compound | expansion of human iNKT cells in vitro compared with 7DW8-5 [1] | expansion of immune cells in WT mice [2] | cytokine (IL-2) secretion from murine iNKT cells [3] | cytokine secretion (IL-2, IFN-γ, IL-4) from human iNKT cells [4]
CC[C@@H](O)[C@@H](O)[C@H](CO[C@H]1OC(CO)[C@@H](O)C(O)C1O)NC(=O)Cc1ccc(F)cc1 (stereo partly shown) [Compound 7DW8-5-Glc] | significantly (p=0.0009) better | – | – | –
CCCCCCCCCCCCCC[C@@H](O)[C@@H](O)[C@H](CO[C@H]1O[C@H](CO)[C@@H](O)[C@H](O)[C@@H]1O)NC(=O)CCCCCCCCCCc1ccc(F)cc1 [Compound 7DW8-5-Man] | – | did not expand any types of immune cells | could not stimulate | could not stimulate

Source: patent publication US10533034B2, “Human iNKT cell activation using glycolipids” (ACADEMIA SINICA, priority 2014, dated 2020)
